According to patent publication US8513232B2, “Substituted spirocyclic piperidine derivatives as histamine-3 (H3) receptor ligands” (Cephalon, Inc., priority 2008, dated 2013):
Where two headings read alike, the source gives them in different places.

Key:
human H3 receptor = molecular target: T1, human H3 receptor (Homo sapiens, UniProt Q9Y5N1); test: Human H3 radioligand binding ([3H]-N-alpha-methylhistamine, SPA)
T1 construct: expressed in transfected cells
Method: (§1) Methods: CHO cells stably expressing the human H3 receptor (GenBank: NM_007232) were harvested and cell pellets were frozen (−80° C.). Cell pellets were resuspended in 5 mM Tris-HCl, pH 7.5 with […] and a cocktail of protease inhibitors (Complete Protease Inhibitior Tablets, Roche Diagnostics). Cells were disrupted using a polytron cell homogenizer and the suspension was centrifuged at 1000×g for 10 minutes at 4° C. The pellet was discarded and the supernatant centrifuged at 40,000×g for 30 min at 4° C. This membrane pellet was washed in membrane buffer containing 50 mM Tris-HCl, pH 7.5 with 0.6 mM EDTA, 5 mM MgCl2 and protease inhibitors, recentrifuged as above and the final pellet resuspended in membrane buffer plus 250 mM sucrose and frozen at −80° C.
(§2) Radioligand Binding. Membranes were resuspended in 50 mM Tris HCl (pH 7.4), 5 mM MgCl2, 0.1% BSA. The membrane suspensions (10 μg protein per well) were incubated in a 96 well microtiter plate with [^3H]-N-alpha-methylhistamine (approximately 1 nM final concentration), test compounds at various concentrations (0.01 nM-30 μM) and scintillation proximity beads (Perkin Elmer, FlashBlueGPCR Scintillating Beads) in a final volume of 80 μl for 4 hours at room temperature, protected from light. Non-specific binding was determined in the presence of 10 μM clobenpropit. Radioligand bound to receptor, and therefore in proximity to the scintillation beads, was measured using a MicroBeta scintillation counter.

[1] = molecular target: T2, rat histamine H3 receptor (Rattus norvegicus, UniProt Q9QYN8); test: Rat H3 radioligand binding ([3H]-N-alpha-methylhistamine, SPA)
T2 construct: encoding the entire 445-amino-acid rat histamine H3 receptor; expressed in transfected cells; membrane preparation
T2 sequence (Q9QYN8 whole entry): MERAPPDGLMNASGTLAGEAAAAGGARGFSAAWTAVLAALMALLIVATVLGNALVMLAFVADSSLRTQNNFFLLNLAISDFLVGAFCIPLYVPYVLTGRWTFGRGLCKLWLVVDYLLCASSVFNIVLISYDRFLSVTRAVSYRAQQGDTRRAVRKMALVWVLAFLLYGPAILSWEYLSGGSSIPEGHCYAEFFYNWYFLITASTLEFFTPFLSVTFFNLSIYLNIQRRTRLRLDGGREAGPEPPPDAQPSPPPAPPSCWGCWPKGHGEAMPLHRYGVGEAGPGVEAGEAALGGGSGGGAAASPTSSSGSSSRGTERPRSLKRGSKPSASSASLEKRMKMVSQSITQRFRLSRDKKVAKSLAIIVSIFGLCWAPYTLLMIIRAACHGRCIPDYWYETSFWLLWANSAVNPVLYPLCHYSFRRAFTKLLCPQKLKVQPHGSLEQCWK
Source text: as §1, with “Cell line development and membrane preparation. The rat” for “Methods: CHO cells stably expressing the human”, “cDNA was PCR amplified from reverse-transcribed RNA pooled from rat thalamus, hypothalamus, striatum and prefrontal cortex with a sequence corresponding to by #338-1672 of Genbank file #NM_053506, encoding the entire 445-amino-acid rat histamine H3 receptor. This was engineered into the pIRES-neo3 mammalian expression vector, which was stably transfected into the CHO-A3 cell line (Euroscreen, Belgium), followed by clonal selection by limiting dilution. Cells” for “(GenBank: NM_007232)”
as §2

[2] = Human H3 binding, Table B, Examples 136-362, read-out: hum H3 binding Ki
[3] = Rat H3 binding, Table B, Examples 136-362, read-out: rat H3 binding Ki
[4] = human H3 binding, Table D, read-out: Human H3 Ki
[5] = rat H3 binding, Table D, read-out: Rat H3 Ki
[6] = Table C, human H3 binding, read-out: Human H3 Ki
[7] = Table C, rat H3 binding, read-out: Rat H3 Ki
[8] = Table A, human H3 binding, read-out: Human Ki
[9] = Table A, rat H3 binding, read-out: Rat Ki

T1 sequence (Q9Y5N1 whole entry): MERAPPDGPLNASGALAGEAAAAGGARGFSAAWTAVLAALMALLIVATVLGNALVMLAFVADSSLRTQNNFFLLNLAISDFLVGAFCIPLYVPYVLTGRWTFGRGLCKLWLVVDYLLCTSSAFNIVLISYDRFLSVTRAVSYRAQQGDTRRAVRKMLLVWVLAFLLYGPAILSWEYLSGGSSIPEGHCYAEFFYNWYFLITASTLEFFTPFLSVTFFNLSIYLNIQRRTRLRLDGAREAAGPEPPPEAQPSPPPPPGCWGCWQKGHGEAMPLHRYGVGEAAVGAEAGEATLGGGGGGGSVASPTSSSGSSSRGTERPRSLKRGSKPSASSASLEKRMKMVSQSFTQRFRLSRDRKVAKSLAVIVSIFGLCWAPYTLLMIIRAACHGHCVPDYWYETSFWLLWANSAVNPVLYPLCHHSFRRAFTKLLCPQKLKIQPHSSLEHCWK

SMILES	melting point [°C]	Ki (human H3 receptor; [2]) [nM]	Ki [1, 3] [nM]	other results
O=C(NC1CCOCC1)c1ccc(-c2ccc3c(c2)CCC2(CCN(C4CCC4)CC2)O3)cc1 [Example 361]	205 to 207	< 200	< 200	–
O=C(Nc1ccc2c(c1)COC1(CCN(C3CCC3)CC1)O2)c1cnco1 [Example 286]	175 to 177	< 200	< 200	–
CC(=O)N[C@H]1CCN(c2ccc3c(c2)COC2(CCN(C4CCC4)CC2)O3)C1 [Example 342]	77.9 to 80	< 200	< 200	–
N#Cc1ccc(C(=O)Nc2ccc3c(c2)CCC2(CCN(C4CCC4)CC2)O3)cc1 [Example 224]	186 to 188	< 200	< 200	–
CNC(=O)c1ccc(-c2ccc3c(c2)COC2(CCN(C4CCC4)CC2)O3)cc1F [Example 36]	147.8 to 149	–	–	Ki (human H3 receptor; [8]): < 200 nM; Ki [1, 9]: < 200 nM
O=C1C[C@@H](O)CN1c1ccc2c(c1)COC1(CCN(C3CCC3)CC1)O2 [Example 139]	120 to 122	< 200	< 200	–
Clc1ccc(-c2ccc3c(c2)CCC2(CCN(C4CCC4)CC2)O3)cn1 [Example 371]	168 to 169	–	–	Ki (human H3 receptor; [6]): < 200 nM; Ki [1, 7]: < 200 nM
Cc1n[nH]c(C)c1-c1ccc2c(c1)COC1(CCN(C3CCC3)CC1)O2 [Example 200]	110 to 112	< 200	< 200	–
CCOC1CCN(c2ccc3c(c2)CCC2(CCN(C4CCC4)CC2)O3)CC1 [Example 391]	285 to 290	–	–	Ki (human H3 receptor; [6]): < 200 nM; Ki [1, 7]: < 200 nM
COCCNC(=O)c1ccc(-c2ccc3c(c2)CCC2(CCN(C4CCC4)CC2)O3)cc1F [Example 217]	190 to 192	< 200	< 200	–
NS(=O)(=O)c1ccc(-c2ccc3c(c2)COC2(CCN(C4CCC4)CC2)O3)cc1 [Example 48]	195 to 200	–	–	Ki (human H3 receptor; [8]): < 200 nM; Ki [1, 9]: < 200 nM
O=C(c1ccco1)N1CCN(c2ccc3c(c2)CCC2(CCN(C4CCC4)CC2)O3)CC1 [Example 387]	133 to 135	–	–	Ki (human H3 receptor; [6]): < 200 nM; Ki [1, 7]: < 200 nM
CNC(=O)NCc1ccc(-c2ccc3c(c2)COC2(CCN(C4CCC4)CC2)O3)cc1 [Example 181]	205 to 206.5	< 200	< 200	–
c1cc(Nc2ccc3c(c2)COC2(CCN(C4CCC4)CC2)O3)ncn1 [Example 129]	170 to 171	–	–	Ki (human H3 receptor; [8]): < 200 nM; Ki [1, 9]: < 200 nM
c1cc(-c2ccc3c(c2)COC2(CCN(C4CCC4)CC2)O3)co1 [Example 5]	150 to 152	–	–	Ki (human H3 receptor; [8]): < 200 nM; Ki [1, 9]: < 200 nM
O=C(c1ccc(-c2ccc3c(c2)COC2(CCN(C4CCC4)CC2)O3)cc1)N1CCCCC1 [Example 27]	59 to 62	–	–	Ki (human H3 receptor; [8]): < 200 nM; Ki [1, 9]: < 200 nM
O=C(NCCO)c1ccc(-c2ccc3c(c2)CCC2(CCN(C4CCC4)CC2)O3)cc1 [Example 140]	145 to 147	< 200	< 200	–
CC(=O)N(Cc1cccs1)c1ccc2c(c1)COC1(CCN(C3CCC3)CC1)O2 [Example 348]	119 to 120	< 200	< 200	–
O=C(N[C@@H]1CCOC1)c1ccc(-c2ccc3c(c2)COC2(CCN(C4CCC4)CC2)O3)cc1 [Example 346]	198 to 199	< 200	< 200	–
COCC(C)(C)NC(=O)c1ccc(-c2ccc3c(c2)CCC2(CCN(C4CCC4)CC2)O3)cc1 [Example 274]	264 to 266	< 200	< 200	–

Second part, led by results:

melting point [°C]	Ki (human H3 receptor; [2]) [nM]	Ki [1, 3] [nM]	SMILES	other results
183 to 185	–	–	CN(C)C(=O)c1cccc(COc2ccc3c(c2)CCC2(CCN(C4CCC4)CC2)O3)c1 [Example 602]	Ki (human H3 receptor; [4]): < 200 nM; Ki [1, 5]: < 200 nM
140 to 142	–	–	CN(C)C(=O)C1CCN(c2ccc3c(c2)CCC2(CCN(C4CCC4)CC2)O3)CC1 [Example 436]	Ki (human H3 receptor; [6]): < 200 nM; Ki [1, 7]: < 200 nM
195 to 196	–	–	CCNC(=O)C1CCC(O)(c2ccc3c(c2)COC2(CCN(C4CCC4)CC2)O3)CC1 (stereo not drawn) [Example 514]	Ki (human H3 receptor; read-out: Human H3 Ki): < 200 nM; Ki ([1]; read-out: Rat H3 kI): < 200 nM
58 to 62	–	–	OC(c1ccc(F)cc1)c1ccc2c(c1)COC1(CCN(C3CCC3)CC1)O2 (stereo not drawn) [Example 513]	Ki (human H3 receptor; read-out: Human H3 Ki): < 200 nM; Ki ([1]; read-out: Rat H3 kI): < 200 nM
254 to 255	–	–	O=c1cc(-c2ccc3c(c2)COC2(CCN(C4CCC4)CC2)O3)c(F)c[nH]1 [Example 766]	Ki (human H3 receptor; [4]): < 200 nM; Ki [1, 5]: < 200 nM
75 to 78	–	–	CN(C)C(=O)c1ccc(COc2ccc3c(c2)CCC2(CCN(C4CCC4)CC2)O3)nc1 [Example 674]	Ki (human H3 receptor; [4]): < 200 nM; Ki [1, 5]: < 200 nM
252 to 254	–	–	CNC(=O)c1ccc(-c2ccc3c(c2)COC2(CCN(C4CCC4)CC2)O3)cc1O [Example 704]	Ki (human H3 receptor; [4]): < 200 nM; Ki [1, 5]: < 200 nM
190 to 192	–	–	FC(F)(F)c1ncccc1-c1ccc2c(c1)COC1(CCN(C3CCC3)CC1)O2 [Example 753]	Ki (human H3 receptor; [4]): 200 to 1000 nM; Ki [1, 5]: 200 to 1000 nM
157 to 159	–	–	OC1(c2ccc3c(c2)COC2(CCN(C4CCC4)CC2)O3)CCOCC1 [Example 477]	Ki (human H3 receptor; read-out: Human H3 Ki): < 200 nM; Ki ([1]; read-out: Rat H3 kI): < 200 nM
267 to 269	–	–	CN(C)C(=O)c1ccc(Oc2ccc3c(c2)CCC2(CCN(C4CCC4)CC2)O3)nc1 [Example 407]	Ki (human H3 receptor; [6]): < 200 nM; Ki [1, 7]: 200 to 1000 nM
170 to 173	–	–	Cn1cc(-c2ccc3c(c2)COC2(CCN(C4CCC4)CC2)O3)ccc1=O [Example 659]	Ki (human H3 receptor; [4]): < 200 nM; Ki [1, 5]: < 200 nM
190 to 192	–	–	Cc1ccc(-c2ccc3c(c2)COC2(CCN(C4CCC4)CC2)O3)c(C)n1 [Example 748]	Ki (human H3 receptor; [4]): < 200 nM; Ki [1, 5]: < 200 nM
118 to 120	–	–	CC(C)(C)OC(=O)N1CCC(Oc2ccc3c(c2)CCC2(CCN(C4CCC4)CC2)O3)CC1 [Example 417, 1′-cyclobutyl-6-(piperidine-1-carboxylic acid tert-butyl ester-4-yloxy)-3,4-dihydro spiro-[2H-benzopyran-2,4′-piperidine]]	Ki (human H3 receptor; [6]): < 200 nM; Ki [1, 7]: < 200 nM
149 to 150	–	–	Cn1cc2c(n1)CCC(c1ccc3c(c1)COC1(CCN(C4CCC4)CC1)O3)=C2 [Example 459]	Ki (human H3 receptor; read-out: Human H3 Ki): < 200 nM; Ki ([1]; read-out: Rat H3 kI): < 200 nM
155 to 158	–	–	[O-][S+]1CC=C(c2ccc3c(c2)COC2(CCN(C4CCC4)CC2)O3)CC1 (stereo not drawn) [Example 461]	Ki (human H3 receptor; read-out: Human H3 Ki): < 200 nM; Ki ([1]; read-out: Rat H3 kI): < 200 nM
218 to 220	–	–	CC(C)n1ccc(-c2ccc3c(c2)COC2(CCN(C4CCC4)CC2)O3)cc1=O [Example 758]	Ki (human H3 receptor; [4]): < 200 nM; Ki [1, 5]: < 200 nM
235 to 237	–	–	COCCNC(=O)c1ccc(Oc2ccc3c(c2)CCC2(CCN(C4CCC4)CC2)O3)nc1 [Example 416]	Ki (human H3 receptor; [6]): < 200 nM; Ki [1, 7]: < 200 nM
205 to 208	–	–	Cn1cc2c(n1)CCC(c1ccc3c(c1)CCC1(CCN(C4CCC4)CC1)O3)=C2 [Example 448]	Ki (human H3 receptor; read-out: Human H3 Ki): < 200 nM; Ki ([1]; read-out: Rat H3 kI): < 200 nM
61 to 63	–	–	CC1CN=C(CCc2ccc3c(c2)COC2(CCN(C4CCC4)CC2)O3)O1 (stereo not drawn) [Example 691]	Ki (human H3 receptor; [4]): < 200 nM; Ki [1, 5]: < 200 nM
